In patent US20230026696A1, “TRPV4 RECEPTOR LIGANDS” (UNIVERSITY OF UTAH RESEARCH FOUNDATION, priority 2019, published 2023):
Where a name gives a salt, the structure may show the parent alone.

The compounds below were run against T1, human TRPV4 (Homo sapiens, UniProt Q9HBA0) (assay: Fluorometric cell-based Ca2+ flux assay, HEK-293 cells stably overexpressing human TRPV4). Details: HEK-293 stably overexpressing human TRPV4; agonist GSK1016790A 30 nM.
T1 construct: expressed in transfected cells
T1 sequence (Q9HBA0 whole entry): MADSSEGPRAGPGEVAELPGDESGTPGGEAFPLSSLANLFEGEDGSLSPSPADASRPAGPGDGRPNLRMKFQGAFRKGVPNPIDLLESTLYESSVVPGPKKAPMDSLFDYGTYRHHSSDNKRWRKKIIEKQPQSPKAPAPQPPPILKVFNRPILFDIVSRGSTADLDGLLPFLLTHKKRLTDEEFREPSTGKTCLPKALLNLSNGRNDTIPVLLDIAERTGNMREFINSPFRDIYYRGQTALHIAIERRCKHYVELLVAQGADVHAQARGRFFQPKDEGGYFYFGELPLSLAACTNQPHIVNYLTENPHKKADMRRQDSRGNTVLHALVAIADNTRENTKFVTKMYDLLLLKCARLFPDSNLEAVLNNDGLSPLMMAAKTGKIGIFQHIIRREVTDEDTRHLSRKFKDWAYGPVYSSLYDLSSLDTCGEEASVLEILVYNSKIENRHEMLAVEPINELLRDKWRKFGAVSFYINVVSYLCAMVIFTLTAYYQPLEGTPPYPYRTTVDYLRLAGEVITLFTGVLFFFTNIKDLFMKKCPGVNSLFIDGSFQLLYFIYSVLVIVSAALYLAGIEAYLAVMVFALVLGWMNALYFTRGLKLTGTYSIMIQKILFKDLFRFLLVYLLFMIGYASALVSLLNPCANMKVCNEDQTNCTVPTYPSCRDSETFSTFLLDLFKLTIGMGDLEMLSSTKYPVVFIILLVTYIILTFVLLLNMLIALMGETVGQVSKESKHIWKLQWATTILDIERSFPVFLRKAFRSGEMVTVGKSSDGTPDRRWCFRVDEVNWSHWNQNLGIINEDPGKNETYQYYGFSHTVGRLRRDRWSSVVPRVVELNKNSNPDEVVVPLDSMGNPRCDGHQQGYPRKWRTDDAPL
Description: Fluorometric cell-based Ca^2+ flux assays were performed to assess TRPV4 antagonist activity and determine potency (IC50 values) in human embryonic kidney-293 cells (HEK-293) that stably overexpress human TRPV4. The assays were performed according to methods described in: Deering-Rice, C. E., Johansen, M. E., Roberts, J. K., Thomas, K. C., Romero, E. G., Lee, J., Yost, G. S., Veranth, J. M., and Reilly, C. A. (2012), Mol. Pharmacol. 81(3), 411-419; Shapiro, D., Deering-Rice, C. E., Romero, E. G., Hughen, R. W., Light, A. R., Veranth, J. M., and Reilly, C. A. (2013), Chem Res. Toxicol., 26, 750-758; and Deering-Rice, C. E., Mitchell, V. K., Romero, E. G., Abdel Aziz, M. H., and Reilly, C. A. (2014), Pharmacol. Res. & Perspectives. 2(5), 1-10.
The HEK-293 cells stably overexpressing human TRPV4 were grown to confluence in 2% (w/v) gelatin-coated 96-well plates in DMEM:F12 media supplemented with 5% fetal bovine serum, 1× penicillin/streptomycin (Invitrogen) and Geneticin (300 μg/mL).
The HEK-293 cells were prepared for assay by replacing the growth media with a 1:1 solution of LHC-9 and Fluo 4-Direct (Invitrogen) reagent containing Fluo 4-AM, pluronic F-127, probenecid, and a proprietary quencher dye. The cells were then incubated at 37° C. for 1 h in a cell culture incubator. The cells were subsequently washed by replacing the loading solution with LHC-9 containing 1 mM water-soluble probenecid (Invitrogen), 750 μM Trypan Red (ATT Bioquest), and a test compound (at various concentrations). The cells were incubated for an additional 30 minutes at 37° C. to allow for Fluo 4-AM cleavage and activation, as well as equilibration to both the test compounds and Fluo 4.
An agonist treatment solution (90 nM GSK1016790A, a potent activator of TRPV4) was prepared in LHC9 at 3× concentration and 25 μL was added to 50 μL of media on the cells in 96 well plates, providing a final concentration of 30 nM. Changes in cellular fluorescence were monitored with a BMG Labtech NOVOStar fluorescence plate reader for 1 minute at 37° C. Data were quantified as the maximum rate of change in fluorescence intensity (max ΔF/s), corrected for media only treatment (negative control), and represented as the percentage of response relative to the no antagonist control. A minimum of three replicates were used for each treatment condition, with a minimum of 8 concentrations to derive the IC50 values reported for each antagonist. The IC50 values for each antagonist, which are shown in Table 4 below, were calculated according to methods described in the assays were performed according to methods described in: Deering-Rice, C. E., Johansen, M. E., Roberts, J. K., Thomas, K. C., Romero, E. G., Lee, J., Yost, G. S., Veranth, J. M., and Reilly, C. A. (2012), Mol. Pharmacol. 81(3), 411-419; Shapiro, D., Deering-Rice, C. E., Romero, E. G., Hughen, R. W., Light, A. R., Veranth, J. M., and Reilly, C. A. (2013), Chem Res. Toxicol., 26, 750-758; and Deering-Rice, C. E., Mitchell, V. K., Romero, E. G., Abdel Aziz, M. H., and Reilly, C. A. (2014), Pharmacol. Res. & Perspectives. 2(5), 1-10.

Compound	IC50 [nM]
CC1(COc2ccc(C#N)cc2)CN(S(=O)(=O)c2ccc(Cl)cc2Cl)C1 [Compound 1, 4-((1-((2,4-Dichlorophenyl)sulfonyl)-3-methylazetidin-3-yl)methoxy)benzonitrile]	510
N#Cc1ccc(OCC2(C(=O)O)CN(S(=O)(=O)c3ccc(Cl)cc3Cl)C2)cc1 [Compound 2, 3-((4-Cyanophenoxy)methyl)-1-((2,4-dichlorophenyl)sulfonyl)azetidine-3-carboxylic acid]	≥ 50000
N#Cc1ccc(OCC2(CO)CN(S(=O)(=O)c3ccc(Cl)cc3Cl)C2)cc1 [Compound 3, 4-((1-((2,4-Dichlorophenyl)sulfonyl)-3-(hydroxymethyl)azetidin-3-yl)methoxy)benzonitrile]	270
CNC(=O)C1(COc2ccc(C#N)cc2)CN(S(=O)(=O)c2ccc(Cl)cc2Cl)C1 [Compound 4, 3-((4-Cyanophenoxy)methyl)-1-((2,4-dichlorophenyl)sulfonyl)-N-methylazetidine-3-carboxamide]	4600
CNCCN(C)C(=O)C1(COc2ccc(C#N)cc2)CN(S(=O)(=O)c2ccc(Cl)cc2Cl)C1 [Compound 5, 3-((4-Cyanophenoxy)methyl)-1-((2,4-dichlorophenyl)sulfonyl)-N-methyl-N-(2-(methylamino)ethyl)azetidine-3-carboxamide]	2250
N#Cc1ccc(OCC2(C(=O)NC3CCOCC3)CN(S(=O)(=O)c3ccc(Cl)cc3Cl)C2)cc1 [Compound 6, 3-((4-cyanophenoxy)methyl)-1-((2,4-dichlorophenyl)sulfonyl)-N-(tetrahydro-2H-pyran-4-yl)azetidine-3-carboxamide]	12900
CCOC(=O)C1(COc2ccc(C#N)c(F)c2)CN(S(=O)(=O)c2ccc(Cl)cc2Cl)C1 [Compound 7, Ethyl 3-((4-cyano-3-fluorophenoxy)methyl)-1-((2,4-dichlorophenyl)sulfonyl)azetidine-3-carboxylate]	5000
N#Cc1ccc(OCC2(C(N)=O)CN(S(=O)(=O)c3ccc(Cl)cc3Cl)C2)cc1F [Compound 9, 3-((4-Cyano-3-fluorophenoxy)methyl)-1-((2,4-dichlorophenyl)sulfonyl)azetidine-3-carboxamide]	1090
NCc1ccc(OCC2(CO)CN(S(=O)(=O)c3ccc(Cl)cc3Cl)C2)cc1F [Compound 10, (3-((4-(Aminomethyl)-3-fluorophenoxy)methyl)-1-((2,4-dichlorophenyl)sulfonyl)azetidin-3-yl)methanol]	10000
CC(=O)OCC1(COc2ccc(C#N)c(F)c2)CN(S(=O)(=O)c2ccc(Cl)cc2Cl)C1 [Compound 12, (3-((4-Cyano-3-fluorophenoxy)methyl)-1-((2,4-dichlorophenyl)sulfonyl)azetidin-3-yl)methyl acetate]	303
COCC1(COc2ccc(C#N)c(F)c2)CN(S(=O)(=O)c2ccc(Cl)cc2Cl)C1 [Compound 13, 4-((1-((2,4-Dichlorophenyl)sulfonyl)-3-(methoxymethyl)azetidin-3-yl)methoxy)-fluorobenzonitrile]	62
N#Cc1ccc(OCC2(COP(=O)(O)O)CN(S(=O)(=O)c3ccc(Cl)cc3Cl)C2)cc1F [Compound 14, Sodium (3-((4-cyano-3-fluorophenoxy)methyl)-1-((2,4-dichlorophenyl)sulfonyl)azetidin-3-yl)methyl phosphate]	70
N#Cc1ccc(OCC2(COS(=O)(=O)CCN)CN(S(=O)(=O)c3ccc(Cl)cc3Cl)C2)cc1F [Compound 15, (3-((4-Cyano-3-fluorophenoxy)methyl)-1-((2,4-dichlorophenyl)sulfonyl)azetidin-3-yl)methyl 2-aminoethane-1-sulfonate trifluoroacetate salt]	21
N#Cc1ccc(OCC2(CNC3CCOCC3)CN(S(=O)(=O)c3ccc(Cl)cc3Cl)C2)cc1F [Compound 18, 4-((1-((2,4-Dichlorophenyl)sulfonyl)-3-(((tetrahydro-2H-pyran-4-yl)amino)methyl)azetidin-3-yl)methoxy)-2-fluorobenzonitrile hydrochloride]	0.7
N#Cc1ccc(OCC2(CNCCCO)CN(S(=O)(=O)c3ccc(Cl)cc3Cl)C2)cc1F [Compound 19, 4-((1-((2,4-Dichlorophenyl)sulfonyl)-3-(((3-hydroxypropyl)amino)methyl)azetidin-3-yl)methoxy)-2-fluorobenzonitrile hydrochloride]	0.5
N#Cc1ccc(OCC2(CNCC(N)=O)CN(S(=O)(=O)c3ccc(Cl)cc3Cl)C2)cc1F [Compound 20, 2-(((3-((4-Cyano-3-fluorophenoxy)methyl)-1-((2,4-dichlorophenyl)sulfonyl)azetidin-3-yl)methyl)amino)acetamide hydrochloride]	153
COCCNCC1(COc2ccc(C#N)c(F)c2)CN(S(=O)(=O)c2ccc(Cl)cc2Cl)C1 [Compound 21, 4-((1-((2,4-dichlorophenyl)sulfonyl)-3-(((2-methoxyethyl)amino)methyl)azetidin-3-yl)methoxy)-2-fluorobenzonitrile hydrochloride]	18.7
N#Cc1ccc(OCC2(CNCc3nccs3)CN(S(=O)(=O)c3ccc(Cl)cc3Cl)C2)cc1F [Compound 22, 4-((1-((2,4-dichlorophenyl)sulfonyl)-3-(((thiazol-2-ylmethyl)amino)methyl)azetidin-3-yl)methoxy)-2-fluorobenzonitrile hydrochloride]	117
N#Cc1ccc(OCC2(CNCC3CCOC3)CN(S(=O)(=O)c3ccc(Cl)cc3Cl)C2)cc1F (stereo not shown) [Compound 23, 4-((1-((2,4-Dichlorophenyl)sulfonyl)-3-((((tetrahydrofuran-3-yl)methyl)amino)methyl)azetidin-3-yl)methoxy)-2-fluorobenzonitrile hydrochloride]	4.1
CC(O)CNCC1(COc2ccc(C#N)c(F)c2)CN(S(=O)(=O)c2ccc(Cl)cc2Cl)C1 (stereo not shown) [Compound 24, 4-((1-((2,4-Dichlorophenyl)sulfonyl)-3-(((2-hydroxypropyl)amino)methyl)azetidin-3-yl)methoxy)-2-fluorobenzonitrile hydrochloride]	0.9
CCNCC1(COc2ccc(C#N)c(F)c2)CN(S(=O)(=O)c2ccc(Cl)cc2Cl)C1 [Compound 25, 4-((1-((2,4-Dichlorophenyl)sulfonyl)-3-((ethylamino)methyl)azetidin-3-yl)methoxy)-2-fluorobenzonitrile hydrochloride]	1
N#Cc1ccc(OCC2(CNC3COC3)CN(S(=O)(=O)c3ccc(Cl)cc3Cl)C2)cc1F [Compound 26, 4-((1-((2,4-Dichlorophenyl)sulfonyl)-3-((oxetan-3-ylamino)methyl)azetidin-3-yl)methoxy)-2-fluorobenzonitrile]	8
N#Cc1ccc(OCC2(CNCC3COC3)CN(S(=O)(=O)c3ccc(Cl)cc3Cl)C2)cc1F [Compound 27, 4-((1-((2,4-Dichlorophenyl)sulfonyl)-3-(((oxetan-3-ylmethyl)amino)methyl)azetidin-3-yl)methoxy)-2-fluorobenzonitrile]	1
N#Cc1ccc(OCC2(CNC[C@@H]3CCCO3)CN(S(=O)(=O)c3ccc(Cl)cc3Cl)C2)cc1F [Compound 28, (S)-4-((1-((2,4-dichlorophenyl)sulfonyl)-3-((((tetrahydrofuran-2-yl)methyl)amino)methyl)azetidin-3-yl)methoxy)-2-fluorobenzonitrile hydrochloride]	8.7
N#Cc1ccc(OCC2(CNCC3CCOCC3)CN(S(=O)(=O)c3ccc(Cl)cc3Cl)C2)cc1F [Compound 29, 4-((1-((2,4-Dichlorophenyl)sulfonyl)-3-((((tetrahydro-2H-pyran-4-yl)methyl)amino)methyl)azetidin-3-yl)methoxy)-2-fluorobenzonitrile hydrochloride]	5.2
